Reference: patent US11007274B2, “Compounds for medicinal applications” (Ausvir Therapeutics Pty LTD, priority 2015, dated 2021)
Converted amounts (≈) assume the structure as drawn. “And” between values parts separate entries of the source, which are not always exact repeats. Identical values can stand only once. Like-named read-outs stand apart in the source and are kept apart here.

How the values were obtained:
[1] = system: Influenza A virus H5N1, Hong Kong/213/2003; assay: microbe, parasite or virus in culture; assay type: cell-based; settings: Influenza A virus, H5N1
[2] = system: A/Mississippi/03/01H274Y; assay type: cell-based, influenza virus
[3] = system: Florida/4/2006; assay: microbe, parasite or virus in culture; assay type: cell-based; settings: unidentified influenza virus; Table 7
[4] = system: CA/07/2009 virus H1N1; assay: Viral Plaque Reduction Assay (Table 22); assay type: cell-based; settings: Influenza A virus
[5] = system: Influenza A virus H3N2, Perth/16/2009; assay: microbe, parasite or virus in culture; assay type: cell-based
[6] = system: Influenza B virus, B/Brisbane/60/2008; assay: microbe, parasite or virus in culture; assay type: cell-based
[7] = system: Influenza A virus H1N1, California/07/2009; assay: microbe, parasite or virus in culture; assay type: cell-based
[8] = system: Influenza A virus H5N1, Duck/MN/1525/81; assay: microbe, parasite or virus in culture; assay type: cell-based
[9] = system: Influenza A virus H5N1, Hong Kong/213/2003; assay: microbe, parasite or virus in culture; assay type: cell-based; settings: Influenza A virus, H5N1; remark: listed apart in the source
[10] = system: Influenza A virus H3N2, Perth/16/2009; assay: microbe, parasite or virus in culture; assay type: cell-based; settings: Table 11, Neutral Red, read-out: EC50
[11] = system: Influenza B virus, B/Florida/4/2006; assay: microbe, parasite or virus in culture; assay type: cell-based
[12] = system: Perth/16/2009; assay: microbe, parasite or virus in culture; assay type: cell-based; settings: unidentified influenza virus; Table 7
[13] = system: A/PR/8 virus H1N1; assay: Viral Plaque Reduction Assay (Table 23); assay type: cell-based, influenza virus; settings: Influenza A virus
[14] = system: Influenza B virus, B/Brisbane/60/2008; assay: microbe, parasite or virus in culture; assay type: cell-based; settings: Table 18, Neutral Red
[15] = system: CA/07/2009; assay: microbe, parasite or virus in culture; assay type: cell-based; settings: unidentified influenza virus, Table 7
[16] = system: kinases; assay: KINOME scan profiling (Table 41)
[17] = system: Influenza A virus H1N1, California/07/2009; assay: microbe, parasite or virus in culture; assay type: cell-based; settings: Table 13, Neutral Red, read-out: EC50
[18] = molecular target: hERG (Homo sapiens, UniProt Q12809)
hERG, sequence (Q12809 whole entry): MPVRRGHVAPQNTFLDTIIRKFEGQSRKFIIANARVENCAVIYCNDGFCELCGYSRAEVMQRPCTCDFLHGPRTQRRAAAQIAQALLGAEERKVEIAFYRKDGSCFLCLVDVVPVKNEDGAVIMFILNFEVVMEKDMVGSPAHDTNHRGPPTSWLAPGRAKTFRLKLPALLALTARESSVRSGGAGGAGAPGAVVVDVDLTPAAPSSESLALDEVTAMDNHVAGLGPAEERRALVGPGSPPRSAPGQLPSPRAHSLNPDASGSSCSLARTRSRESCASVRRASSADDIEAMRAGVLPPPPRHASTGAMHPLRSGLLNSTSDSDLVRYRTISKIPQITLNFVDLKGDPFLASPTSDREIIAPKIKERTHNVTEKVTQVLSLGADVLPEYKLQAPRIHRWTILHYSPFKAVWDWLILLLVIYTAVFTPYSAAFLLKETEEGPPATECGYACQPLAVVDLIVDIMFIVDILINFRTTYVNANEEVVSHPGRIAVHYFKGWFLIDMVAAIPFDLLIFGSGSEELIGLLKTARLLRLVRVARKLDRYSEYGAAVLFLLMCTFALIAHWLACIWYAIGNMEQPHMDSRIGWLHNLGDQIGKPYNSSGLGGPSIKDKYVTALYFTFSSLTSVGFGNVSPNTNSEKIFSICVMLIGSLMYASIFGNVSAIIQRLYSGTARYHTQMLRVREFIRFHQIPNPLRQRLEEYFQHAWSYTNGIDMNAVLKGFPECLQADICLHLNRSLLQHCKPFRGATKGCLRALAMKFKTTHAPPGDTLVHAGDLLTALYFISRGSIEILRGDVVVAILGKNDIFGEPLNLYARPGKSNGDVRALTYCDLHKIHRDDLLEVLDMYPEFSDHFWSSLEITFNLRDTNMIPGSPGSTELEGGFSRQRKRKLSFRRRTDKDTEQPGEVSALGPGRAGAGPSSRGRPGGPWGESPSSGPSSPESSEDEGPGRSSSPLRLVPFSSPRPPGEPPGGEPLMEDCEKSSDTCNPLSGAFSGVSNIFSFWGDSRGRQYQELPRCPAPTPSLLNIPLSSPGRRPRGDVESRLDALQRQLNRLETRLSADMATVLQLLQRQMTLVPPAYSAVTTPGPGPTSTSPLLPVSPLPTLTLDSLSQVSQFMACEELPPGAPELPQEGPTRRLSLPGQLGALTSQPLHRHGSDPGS

[19] = system: Influenza B virus, B/Florida/4/2006; assay: microbe, parasite or virus in culture; assay type: cell-based; settings: Table 19, Neutral Red (Cytopathic effect/Toxicity), B/Florida/4/2006, read-out: EC50

Compound: CC(=O)N[C@H]1[C@H]([C@H](OC(=O)NCCCCCCCCCNC(=O)c2cc(C(=O)NCCCCCCCCCNC(=O)O[C@@H]([C@@H]3OC(C(=O)O)=C[C@H](NC(=N)N)[C@H]3NC(C)=O)[C@H](O)CO)c(C(=O)N[C@H](CC(=O)NCS(=O)(=O)O)C(=O)NCS(=O)(=O)O)cc2C(=O)N[C@H](CC(=O)NCS(=O)(=O)O)C(=O)NCS(=O)(=O)O)[C@H](O)CO)OC(C(=O)O)=C[C@@H]1NC(=N)N [MD185, PK2PYR(Zn)2[(D-Asp)(NHCH2SO3)2]2]
- EC90 [1]: < 0.32 ng/mL
- EC50 [2]: 0.89 nM
- EC50 [3]: < 0.00013 µg/mL and < 0.07 nM
- EC50 [4]: 9.5e-05 µg/mL and 0.0514 nM
- EC90 [5]: 0.86 ng/mL (≈ 0.464 nM)
- EC50 [6]: 6 ng/mL (≈ 3.24 nM)
- EC90 [7]: 0.26 ng/mL (≈ 0.14 nM)
- EC90 [8]: 1.53 ng/mL (≈ 0.825 nM)
- EC50 [9]: < 0.32 ng/mL
- EC50 [10]: 0.1 ng/mL (≈ 0.0539 nM)
- EC50 [11]: 6 ng/mL (≈ 3.24 nM)
- EC50 [12]: < 0.00013 µg/mL and < 0.07 nM
- EC50 [13]: 4.26 nM
- EC50 [14]: 6.2 ng/mL (≈ 3.34 nM)
- EC50 [15]: 3.2 nM
- EC50 ([15]; MDCK cell line): 6 ng/mL
- Number of Hits [16]: 0
- EC50 [17]: 0.15 ng/mL (≈ 0.0809 nM)
- hERG IC50 [18]: not calculable
- EC50 [19]: 6.2 ng/mL (≈ 3.34 nM)
